The record followed here is patent US10821115B2, “Compounds that inhibit Mcl-1 protein” (priority 2017, dated 2020).

Molecules are shown by their SMILES. Read-outs that look alike come from different tables or passages of the source.

Assay [1] deals with recombinant human Mcl-1 (residues 171-327) / Bim interaction (Homo sapiens (Human), UniProt Q07820). In words: biochemical. The class given is binding. The following applies: read-out: Mcl-1 HTRF IC50. Background: Time-resolved FRET reads energy transfer from a long-lived donor to a nearby acceptor.
Assay [2] has as its system human multiple myeloma cell line, OPM-2. Kind of assay: Cell viability assay (OPM-2 10 FBS), CellTiter-Glo. The class given is cell-based. A digest of the protocol: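 OPM-2 cells at 3000 cells/well in RPMI 1640 with 10% FBS were exposed to serially diluted compounds for 16 h at 37 °C, 5% CO2.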
Where [3] appears, read: TR-FRET, Mcl-1(171-327) / biotin-Bim (51-76).
Where [4] appears, read: Homo sapiens, OPM-2, 16 h, read-out: OPM-2 10% FBS IC50 IP, OPM-2 cells, 10% FBS, 16 h, CellTiter-Glo.
Setting [5] is: read-out: OPM-2 10% FBS IC50 IP, OPM-2 cells, 10% FBS, 16 h, CellTiter-Glo.
The mark [6] stands for this setting: 0.1 nM Mcl-1(171-327), 0.05 nM biotin-Bim (51-76).
[7] abbreviates: read-out: OPM-2 10% FBS IC50 IP, OPM-2 cells, 10% FBS, 16 h incubation.
[8] abbreviates: Homo sapiens, OPM-2, 16 h, read-out: OPM-2 10% FBS IC50 IP, OPM-2 cells, 10% FBS, 16 h incubation.

recombinant human Mcl-1 (residues 171-327) / Bim interaction, sequence (Q07820 171-327): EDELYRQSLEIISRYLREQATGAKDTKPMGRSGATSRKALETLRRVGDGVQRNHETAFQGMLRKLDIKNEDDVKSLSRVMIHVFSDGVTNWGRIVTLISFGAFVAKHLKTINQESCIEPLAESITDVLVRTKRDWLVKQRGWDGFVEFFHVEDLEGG

The term IC50 denotes the concentration needed to halve the response being measured. Turning to `C[C@@H]1[C@@H](C)C/C=C/[C@](O)(C2CC2)[C@@H]2CC[C@H]2CN2C[C@@]3(CCCc4cc(Cl)ccc43)COc3ccc(cc32)C(=O)NS1(=O)=O` [Example 100213, (1S,3′R,6′R,7′R,8′E,11′S,12′R)-6-chloro-7′-cyclopropyl-7′-hydroxy-11′,12′-dimethyl-3,4-dihydro-2H,15′H-spiro[naphthalene-1,22′-[20]oxa[13]thia[1,14]diazatetracyclo [14.7.2.0~3,6~.0~19,24~]pentacosa[8,16,18,24]tetraen]-15′-one 13′,13′-dioxide], the IC50 came out at 2.84 nM in assay [1] (setting [3]) and 2020 nM in assay [2] (setting [4]).

Take `COC[C@]1(OC)CCC[C@H](C)[C@@H](C)S(=O)(=O)NC(=O)c2ccc3c(c2)N(C[C@@H]2CC[C@H]21)C[C@@]1(CCCc2cc(Cl)ccc21)CO3` [Example 100225, (1S,3′R,6′R,7′S,11′S,12′R)-6-chloro-7′-methoxy-7′-(methoxymethyl)-11′,12′-dimethyl-3,4-dihydro-2H,15′H-spiro[naphthalene-1,22′-[20]oxa[13]thia[1,14]diazatetracyclo [14.7.2.0~3,6~.0~19,24~]pentacosa[16,18,24]trien]-15′-one 13′,13′-dioxide]: the IC50 was found to be 0.639 nM in assay [1] (setting [3]) and 882 nM in assay [2] (setting [5]).

Turning to `C[C@@H]1[C@@H](C)C/C=C/[C@@](O)(CS(C)(=O)=O)[C@@H]2CC[C@H]2CN2C[C@@]3(CCCc4cc(Cl)ccc43)COc3ccc(cc32)C(=O)NS1(=O)=O` [Example 100072, (1S,3′R,6′R,7′S,8′E,11′S,12′R)-6-chloro-7′-hydroxy-11′,12′-dimethyl-7′-((methylsulfonyl)methyl)-3,4-dihydro-2H,15′H-spiro[naphthalene-1,22′-[20]oxa[13]thia[1,14]diazatetracyclo [14.7.2.0~3,6~.0~19,24~]pentacosa[8,16,18,24]tetraen]-15′-one 13′,13′-dioxide], the 50% inhibitory concentration (IC50) in assay [1] (setting [3]) was 0.451 nM; in assay [2] (setting [4]), 1720 nM.

Regarding `CO[C@@]1(CC=O)/C=C/C[C@H](C)[C@@H](C)S(=O)(=O)NC(=O)c2ccc3c(c2)N(C[C@@H]2CC[C@H]21)C[C@@]1(CCCc2cc(Cl)ccc21)CO3` [Example 100323, ((1S,3′R,6′R,7′S,8′E,11′S,12′R)-6-chloro-7′-methoxy-11′,12′-dimethyl-13′,13′-dioxido-15′-oxo-3,4-dihydro-2H-spiro[naphthalene-1,22′-[20]oxa[13]thia[1,14]diazatetracyclo [14.7.2.0~3,6~.0~19,24~]pentacosa[8,16,18,24]tetraen]-7′-yl)acetaldehyde], the IC50 in assay [1] (setting [3]) came to 0.477 nM; in assay [2] (setting [4]) it was 1250 nM.

As for `C[C@@H]1[C@@H](C)C/C=C/[C@@](O)([C@@H]2CCN(C)C2=O)[C@@H]2CC[C@H]2CN2C[C@@]3(CCCc4cc(Cl)ccc43)COc3ccc(cc32)C(=O)NS1(=O)=O` [Example 100137, (1S,3′R,6′R,7′S,8′E,11′S,12′R)-6-chloro-7′-hydroxy-11′,12′-dimethyl-7′-((3S)-1-methyl-2-oxo-3-pyrrolidinyl)-3,4-dihydro-2H,15′H-spiro[naphthalene-1,22′-[20]oxa[13]thia[1,14]diazatetracyclo [14.7.2.0~3,6~.0~19,24~]pentacosa[8,16,18,24]tetraen]-15′-one 13′,13′-dioxide], the IC50 in assay [1] (setting [3]) came to 0.365 nM; in assay [2] (setting [5]) it was 2820 nM.

For `C[C@@H]1[C@@H](C)CCC[C@]2(CN3CCOC[C@H]3CO2)[C@@H]2CC[C@H]2CN2C[C@@]3(CCCc4cc(Cl)ccc43)COc3ccc(cc32)C(=O)NS1(=O)=O` (single isomer, unassigned) [Example 399], the IC50 in assay [1] (setting [6]) stood at 0.401 nM; in assay [2] (setting [7]), 2100 nM.

Regarding `CO[C@]1(CN2CCN3CCS(=O)(=O)C[C@@H]3C2)/C=C/C[C@H](C)[C@@H](C)S(=O)(=O)NC(=O)c2ccc3c(c2)N(C[C@@H]2CC[C@H]21)C[C@@]1(CCCc2cc(Cl)ccc21)CO3` (single isomer, unassigned) [Example 221], the IC50 in assay [1] (setting [6]) was found to be 0.069 nM; in assay [2] (setting [7]) it was 120 nM.

As for `CO[C@]1(CN2CCN(Cc3cscn3)CC2)/C=C/C[C@H](C)[C@@H](C)S(=O)(=O)NC(=O)c2ccc3c(c2)N(C[C@@H]2CC[C@H]21)C[C@@]1(CCCc2cc(Cl)ccc21)CO3` [Example 72, (1S,3′R,6′R,7′R,8′E,11′S,12′R)-6-chloro-7′-methoxy-11′,12′-dimethyl-7′-((4-(1,3-thiazol-4-ylmethyl)-1-piperazinyl)methyl)-3,4-dihydro-2H,15′H-spiro[naphthalene-1,22′-[20]oxa[13]thia[1,14]diazatetracyclo [14.7.2.0~3,6~.0~19,24~]pentacosa[8,16,18,24]tetraen]-15′-one 13′,13′-dioxide], the IC50 in assay [1] (setting [6]) was 0.8 nM; in assay [2] (setting [8]), 185 nM.

`CO[C@]1(CS(C)(=O)=O)/C=C/C[C@H](C)[C@@H](C)S(=O)(=O)NC(=O)c2ccc3c(c2)N(C[C@@H]2CC[C@H]21)C[C@@]1(CCCc2cc(Cl)ccc21)CO3` [Example 100492, (1S,3′R,6′R,7′R,8′E,11′S,12′R)-6-chloro-7′-methoxy-11′,12′-dimethyl-7′-((methylsulfonyl)methyl)-3,4-dihydro-2H,15′H-spiro[naphthalene-1,22′-[20]oxa[13]thia[1,14]diazatetracyclo [14.7.2.0~3,6~.0~19,24~]pentacosa[8,16,18,24]tetraen]-15′-one 13′,13′-dioxide]: the results for the IC50 in assay [1] (setting [3]) and in assay [2] (setting [4]) were 0.749 nM and 436 nM, respectively.

In the case of `C[C@@H]1[C@@H](C)CCC[C@@](O)(CC(=O)N2CCN(C)CC2)[C@@H]2CC[C@H]2CN2C[C@@]3(CCCc4cc(Cl)ccc43)COc3ccc(cc32)C(=O)NS1(=O)=O` [Example 100167, (1S,3′R,6′R,7′R,11′S,12′R)-6-chloro-7′-hydroxy-11′,12′-dimethyl-7′-(2-(4-methyl-1-piperazinyl)-2-oxoethyl)-3,4-dihydro-2H,15′H-spiro[naphthalene-1,22′-[20]oxa[13]thia[1,14]diazatetracyclo [14.7.2.0~3,6~.0~19,24~]pentacosa[16,18,24]trien]-15′-one 13′,13′-dioxide], the IC50 in assay [1] (setting [3]) is 0.377 nM; in assay [2] (setting [4]), 339 nM.

As for `CO[C@]1(CN2CCN3C(=O)COC[C@@H]3C2)/C=C/C[C@H](C)[C@@H](C)S(=O)(=O)NC(=O)c2ccc3c(c2)N(C[C@@H]2CC[C@H]21)C[C@@]1(CCCc2cc(Cl)ccc21)CO3` [Example 140, (1S,3′R,6′R,7′R,8′E,11′S,12′R)-6-chloro-7′-methoxy-11′,12′-dimethyl-7′-(((9aS)-4-oxohexahydropyrazino[2,1-c][1,4]oxazin-8(1H)-yl)methyl)-3,4-dihydro-2H,15′H-spiro[naphthalene-1,22′-[20]oxa[13]thia[1,14]diazatetracyclo [14.7.2.0~3,6~.0~19,24~]pentacosa[8,16,18,24]tetraen]-15′-one 13′,13′-dioxide], the IC50 came out at 0.098 nM in assay [1] (setting [6]) and 125 nM in assay [2] (setting [8]).

Consider `C[C@@H]1[C@@H](C)CCC[C@@](O)(CC(=O)N2CCC2)[C@@H]2CC[C@H]2CN2C[C@@]3(CCCc4cc(Cl)ccc43)COc3ccc(cc32)C(=O)NS1(=O)=O` [Example 100145, (1S,3′R,6′R,7′R,11′S,12′R)-7′-(2-(1-azetidinyl)-2-oxoethyl)-6-chloro-7′-hydroxy-11′,12′-dimethyl-3,4-dihydro-2H,15′H-spiro[naphthalene-1,22′-[20]oxa[13]thia[1,14]diazatetracyclo [14.7.2.0~3,6~.0~19,24~]pentacosa[16,18,24]trien]-15′-one 13′,13′-dioxide], for which the IC50 in assay [1] (setting [3]) was determined as 0.357 nM; in assay [2] (setting [5]), 945 nM.

In the case of `CO[C@]1(c2ncccn2)/C=C/C[C@H](C)[C@@H](C)S(=O)(=O)NC(=O)c2ccc3c(c2)N(C[C@@H]2CC[C@H]21)C[C@@]1(CCCc2cc(Cl)ccc21)CO3` [Example 100278, (1S,3′R,6′R,7′R,8′E,11′S,12′R)-6-chloro-7′-methoxy-11′,12′-dimethyl-7′-(2-pyrimidinyl)-3,4-dihydro-2H,15′H-spiro[naphthalene-1,22′-[20]oxa[13]thia[1,14]diazatetracyclo [14.7.2.0~3,6~.0~19,24~]pentacosa[8,16,18,24]tetraen]-15′-one 13′,13′-dioxide], the IC50 stood at 0.458 nM in assay [1] (setting [3]) and 333 nM in assay [2] (setting [4]).

As for `CO[C@@]1(CN2CCN3CCOC[C@@H]3C2)/C=C/C[C@H](C)[C@@H](CCO)S(=O)(=O)NC(=O)c2ccc3c(c2)N(C[C@@H]2CC[C@H]21)C[C@@]1(CCCc2cc(Cl)ccc21)CO3` [Example 346, (1S,3′R,6′R,7′S,8′E,11′S,12′R)-6-Chloro-7′-((9aS)-hexahydropyrazino[2,1-c][1,4]oxazin-8(1H)-ylmethyl)-12′-(2-hydroxyethyl)-7′-methoxy-11′-methyl-3,4-dihydro-2H, 15′H-spiro[naphthalene-1,22′-[20]oxa[13]thia[1,14]diazatetracyclo[14.7.2.0-3,6˜.0˜19,24˜]pentacosa[8,16,18,24]tetraen]-15′-one 13′,13′-dioxide], the values for the IC50 in assay [1] (setting [6]) and in assay [2] (setting [8]) were 0.062 nM and 66 nM, respectively.

Turning to `CO[C@@]1(CN2CCN(c3cncnc3)CC2)/C=C/C[C@H](C)[C@@H](C)S(=O)(=O)NC(=O)c2ccc3c(c2)N(C[C@@H]2CC[C@H]21)C[C@@]1(CCCc2cc(Cl)ccc21)CO3` [Example 305, (1S,3′R,6′R,7′S,8′E,11′S,12′R)-6-chloro-7′-methoxy-11′,12′-dimethyl-7′-((4-(5-pyrimidinyl)-1-piperazinyl)methyl)-3,4-dihydro-2H,15′H-spiro[naphthalene-1,22′-[20]oxa[13]thia[1,14]diazatetracyclo [14.7.2.0~3,6~.0~19,24~]pentacosa[8,16,18,24]tetraen]-15′-one 13′,13′-dioxide], the values for the IC50 in assay [1] (setting [6]) and in assay [2] (setting [8]) were 0.33 nM and 327 nM, respectively.
